Results as given in PMC11267003, “Interdomain communication in a homodimeric ABC transporter” (The Journal of Biological Chemistry, 2024).
Numbering of substitutions follows the chain as printed. No end group written: not given here.

T1: human coreTAPL wildtype (transporter associated with antigen processing-like, ABCB9), C-terminal mVenus-His10 … (human, UniProt Q9NP78 143-766)
T1 construct: human TAPL (ABCB9), coreTAPL without the N-terminal TMD0, amino acids 143-766; A tobacco etch virus cleavage site lies between coreTAPL and mVenus; no cleavage is reported for the mVenus constructs, so the His10 behind mVenus was probably still there; also called wt; wt TAPL; source: Sf21 insect cells (baculovirus), purified by Ni-NTA after solubilisation in GDN or DDM; reconstituted into …
T1 sequence (looked up): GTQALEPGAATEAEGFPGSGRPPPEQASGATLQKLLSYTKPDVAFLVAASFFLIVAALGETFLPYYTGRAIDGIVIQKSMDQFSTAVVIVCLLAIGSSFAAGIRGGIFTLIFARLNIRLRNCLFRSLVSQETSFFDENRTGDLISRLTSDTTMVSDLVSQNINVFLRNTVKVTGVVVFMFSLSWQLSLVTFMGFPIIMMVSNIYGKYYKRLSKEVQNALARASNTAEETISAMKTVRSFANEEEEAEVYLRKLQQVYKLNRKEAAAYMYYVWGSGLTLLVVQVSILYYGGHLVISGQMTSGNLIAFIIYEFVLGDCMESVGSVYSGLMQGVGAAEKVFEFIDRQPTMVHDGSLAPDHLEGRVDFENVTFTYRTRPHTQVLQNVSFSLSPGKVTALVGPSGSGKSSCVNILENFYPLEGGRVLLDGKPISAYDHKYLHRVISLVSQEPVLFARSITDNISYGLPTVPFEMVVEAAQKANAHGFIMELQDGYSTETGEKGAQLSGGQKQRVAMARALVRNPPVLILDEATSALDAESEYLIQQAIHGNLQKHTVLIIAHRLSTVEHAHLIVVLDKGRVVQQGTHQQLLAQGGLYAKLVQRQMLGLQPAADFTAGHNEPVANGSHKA

T2: human coreTAPL D278A, C-terminal mVenus-His10 fusion (human, UniProt Q9NP78 143-766, D278A)
T2 construct: human TAPL (ABCB9), coreTAPL, amino acids 143-766; Mutant of the mVenus fusion construct; TEV site between coreTAPL and mVenus; also called D278A^mV; source: Sf21 insect cells (baculovirus), purified by Ni-NTA after solubilisation in GDN or DDM; reconstituted into liposomes for transport and hydrolysis assays; not shown: mVenus, C-terminal, kept
T2 sequence (looked up): T1 sequence (looked up) with D136A

T3: human coreTAPL R288A, C-terminal mVenus-His10 fusion (human, UniProt Q9NP78 143-766, R288A)
T3 construct: human TAPL (ABCB9), coreTAPL, amino acids 143-766; Mutant of the mVenus fusion construct; TEV site between coreTAPL and mVenus; also called R288A^mV; source: Sf21 insect cells (baculovirus), purified by Ni-NTA after solubilisation in GDN or DDM; reconstituted into liposomes for transport and hydrolysis assays; not shown: mVenus, C-terminal, kept
T3 sequence (looked up): T1 sequence (looked up) with R146A

T4: human coreTAPL D292A, C-terminal mVenus-His10 fusion (human, UniProt Q9NP78 143-766, D292A)
T4 construct: human TAPL (ABCB9), coreTAPL, amino acids 143-766; Mutant of the mVenus fusion construct; TEV site between coreTAPL and mVenus; also called D292A^mV; source: Sf21 insect cells (baculovirus), purified by Ni-NTA after solubilisation in GDN or DDM; reconstituted into liposomes for transport and hydrolysis assays; not shown: mVenus, C-terminal, kept
T4 sequence (looked up): T1 sequence (looked up) with D150A

B1: peptide C4^Atto-655 (RRYC^Atto-655KSTEL) (peptide)
peptide: RRYC(Atto‑655)KSTEL
notes: synthetic 9-mer peptide C4; source: synthetic peptide (Fmoc solid-phase synthesis), labelled, purified by reversed-phase HPLC

Legend:
[1] = target: human coreTAPL (TAPL, ABCB9) (Homo sapiens, UniProt Q9NP78, D278A); experiment: biochemical
human coreTAPL (TAPL, ABCB9) (Homo sapiens, UniProt Q9NP78, D278A), sequence (Q9NP78 143-766 D278A): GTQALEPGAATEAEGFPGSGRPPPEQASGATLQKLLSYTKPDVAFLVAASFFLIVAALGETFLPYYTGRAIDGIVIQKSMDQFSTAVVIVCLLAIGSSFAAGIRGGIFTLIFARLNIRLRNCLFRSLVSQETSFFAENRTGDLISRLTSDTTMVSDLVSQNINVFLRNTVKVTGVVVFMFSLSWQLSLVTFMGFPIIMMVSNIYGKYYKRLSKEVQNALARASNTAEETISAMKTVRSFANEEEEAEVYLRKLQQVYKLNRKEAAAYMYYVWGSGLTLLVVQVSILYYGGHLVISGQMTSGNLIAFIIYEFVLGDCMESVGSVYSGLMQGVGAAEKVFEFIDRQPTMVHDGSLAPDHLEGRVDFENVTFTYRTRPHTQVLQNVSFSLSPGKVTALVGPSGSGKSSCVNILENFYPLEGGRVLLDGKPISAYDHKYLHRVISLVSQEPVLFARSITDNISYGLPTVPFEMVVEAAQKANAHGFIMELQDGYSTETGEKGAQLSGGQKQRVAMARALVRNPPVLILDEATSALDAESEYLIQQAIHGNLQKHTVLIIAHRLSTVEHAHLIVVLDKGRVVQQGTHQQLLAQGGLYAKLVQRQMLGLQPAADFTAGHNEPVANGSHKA

[2] = target: human coreTAPL (TAPL, ABCB9) (Homo sapiens, UniProt Q9NP78, R288A); experiment: biochemical
human coreTAPL (TAPL, ABCB9) (Homo sapiens, UniProt Q9NP78, R288A), sequence (Q9NP78 143-766 R288A): as the sequence (Q9NP78 143-766 D278A) above, with A136D, R146A counted along it

[3] = target: human coreTAPL (TAPL, ABCB9) (Homo sapiens, UniProt Q9NP78, D292A); experiment: biochemical
human coreTAPL (TAPL, ABCB9) (Homo sapiens, UniProt Q9NP78, D292A), sequence (Q9NP78 143-766 D292A): as the sequence (Q9NP78 143-766 D278A) above, with A136D, D150A counted along it

[4] = target: human coreTAPL (TAPL, ABCB9) (Homo sapiens, UniProt Q9NP78); experiment: biochemical
[5] = target: T1, human coreTAPL wildtype (transporter …); experiment: MST; 5 nM C4^Atto-655 with 5 μM GDN-purified TAPL variant in GDN-containing elution buffer, 22 °C, single concentration; conditions: both partners purified
[6] = target: T2, human coreTAPL D278A, C-terminal …; experiment: as above; conditions: both partners purified
[7] = target: T3, human coreTAPL R288A, C-terminal …; experiment: as above; conditions: both partners purified
[8] = target: T4, human coreTAPL D292A, C-terminal …; experiment: as above; conditions: both partners purified

Molecule | IC50 [1] | IC50 [2] | IC50 [3] | IC50 [4] | binding result [5] | binding result [6] | binding result [7] | binding result [8]
Nc1ncnc2c1ncn2[C@@H]1O[C@H](COP(=O)(O)OP(=O)(O)OP(=O)(O)O)[C@@H](O)[C@H]1O [ATP] | 0.9 ± 0.2 µM | 5.6 ± 1.7 µM | 1.3 ± 0.8 µM | 1.9 ± 1.3 µM | – | – | – | –
B1 | – | – | – | – | binds | binds | binds | binds
